Data from PMC2797373 (Bioorganic & medicinal chemistry, 2009).

Target: human A2AAR (Homo sapiens, UniProt P29274)
Test: Radioligand binding at human A2AAR expressed in CHO cells
Conditions: read-out: % inhibition at 1 µM (hA2AAR)

Sequence of human A2AAR (P29274 whole entry): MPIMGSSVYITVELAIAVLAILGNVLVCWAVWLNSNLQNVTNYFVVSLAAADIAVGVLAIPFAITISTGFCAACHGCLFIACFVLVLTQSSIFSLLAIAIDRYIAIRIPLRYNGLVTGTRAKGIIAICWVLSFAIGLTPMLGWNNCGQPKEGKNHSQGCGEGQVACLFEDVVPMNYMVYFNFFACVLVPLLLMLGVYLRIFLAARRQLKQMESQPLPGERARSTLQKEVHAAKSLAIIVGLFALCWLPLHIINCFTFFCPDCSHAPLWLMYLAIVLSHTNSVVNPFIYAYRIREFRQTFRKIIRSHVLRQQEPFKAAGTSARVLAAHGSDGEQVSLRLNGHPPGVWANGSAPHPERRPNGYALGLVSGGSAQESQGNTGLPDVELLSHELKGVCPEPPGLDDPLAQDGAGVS

Question: With `CNC(=O)[C@H]1S[C@@H](n2cnc3c(NC)nc(Cl)nc32)[C@H](O)[C@@H]1O` [Compound 4, reference compound] as the compound, how does the inhibition at 1 µM read?
Answer: Its inhibition at 1 µM is 20%.

Question: Which inhibition at 1 µM does the source give for `CNC(=O)[C@H]1S[C@@H](n2cnc3c(NC)ncnc32)[C@H](O)[C@@H]1O` [Compound 5a, N^6-Methyl-9-(5’-methylaminocarbonyl-4’-thio-β-D-ribofuranosyl)adenine] here?
Answer: The inhibition at 1 µM was 35 ± 8%.

Question: For `CCNC(=O)[C@H]1S[C@@H](n2cnc3c(NC)ncnc32)[C@H](O)[C@@H]1O` [Compound 5b, 9-(5’-Ethylaminocarbonyl-4’-thio-β-D-ribofuranosyl)-N^6-methyladenine], which inhibition at 1 µM is on record?
Answer: The inhibition at 1 µM was 20%.

Question: For `CNc1ncnc2c1ncn2[C@@H]1S[C@H](C(=O)NCC2CC2)[C@@H](O)[C@H]1O` [Compound 5d, 9-(5’-Cyclopropylmethylaminocarbonyl-4’-thio-β-D-ribofuranosyl)-N^6-methyladenine], which inhibition at 1 µM is on record?
Answer: The inhibition at 1 µM was 38 ± 5%.

Question: With `CNc1ncnc2c1ncn2[C@@H]1S[C@H](C(=O)NC2CCCC2)[C@@H](O)[C@H]1O` [Compound 5f, 9-(5’-Cyclopentylaminocarbonyl-4’-thio-β-D-ribofuranosyl)-N^6-methyladenine] as the compound, how does the inhibition at 1 µM read?
Answer: Its inhibition at 1 µM is 45 ± 1%.

Question: For `CNc1ncnc2c1ncn2[C@@H]1S[C@H](C(=O)NCc2cccc(I)c2)[C@@H](O)[C@H]1O` [Compound 5g, 9-[(5’-(3-Iodo-benzylaminocarbonyl)-4’-thio-β-D-ribofuranosyl)]-N^6-methyladenine], which inhibition at 1 µM is on record?
Answer: Its inhibition at 1 µM is 27 ± 10%.

Question: Which inhibition at 1 µM does the source give for `O=C(NC1CCCCC1)[C@H]1S[C@@H](n2cnc3c(NCc4cccc(I)c4)ncnc32)[C@H](O)[C@@H]1O` [Compound 5m, 9-(5’-Cyclohexylaminocarbonyl-4’-thio-β-D-ribofuranosyl)-N^6-(3-iodobenzyl)adenine] here?
Answer: The inhibition at 1 µM was 24 ± 7%.

Question: For `O=C(NCc1cccc(F)c1)[C@H]1S[C@@H](n2cnc3c(NCc4cccc(I)c4)ncnc32)[C@H](O)[C@@H]1O` [Compound 5n, 9-[5’-(3-Fluoro-benzylaminocarbonyl-4’-thio-β-D-ribofuranosyl)]-N^6-(3-iodobenzyl)adenine], which inhibition at 1 µM is on record?
Answer: Its inhibition at 1 µM is 35 ± 8%.

Question: With `O=C(NCc1cccc(Cl)c1)[C@H]1S[C@@H](n2cnc3c(NCc4cccc(I)c4)ncnc32)[C@H](O)[C@@H]1O` [Compound 5o, 9-[5’-(3-Chloro-benzylaminocarbonyl-4’-thio-β-D-ribofuranosyl)]-N^6-(3-iodobenzyl)adenine] as the compound, how does the inhibition at 1 µM read?
Answer: Its inhibition at 1 µM is 44 ± 1%.

Question: Which inhibition at 1 µM does the source give for `Cc1ccccc1CNC(=O)[C@H]1S[C@@H](n2cnc3c(NCc4cccc(I)c4)ncnc32)[C@H](O)[C@@H]1O` [Compound 5p, N^6-(3-Iodo-benzyl)-9-[5’-(2-methyl-benzylaminocarbonyl-4’-thio-β-D-ribofuranosyl)]adenine] here?
Answer: Its inhibition at 1 µM is 26 ± 10%.

Question: Which inhibition at 1 µM does the source give for `Cc1cccc(CNC(=O)[C@H]2S[C@@H](n3cnc4c(NCc5cccc(I)c5)ncnc43)[C@H](O)[C@@H]2O)c1` [Compound 5q, N^6-(3-Iodo-benzyl)-9-[5’-(3-methyl-benzylaminocarbonyl-4’-thio-β-D-ribofuranosyl)]adenine] here?
Answer: The inhibition at 1 µM was 31 ± 1%.

Question: For `Cc1ccc(CNC(=O)[C@H]2S[C@@H](n3cnc4c(NCc5cccc(I)c5)ncnc43)[C@H](O)[C@@H]2O)cc1` [Compound 5r, N^6-(3-Iodo-benzyl)-9-[5’-(4-methyl-benzylaminocarbonyl-4’-thio-β-D-ribofuranosyl)]adenine], which inhibition at 1 µM is on record?
Answer: Its inhibition at 1 µM is 37%.

Question: For `COc1ccccc1CNC(=O)[C@H]1S[C@@H](n2cnc3c(NCc4cccc(I)c4)ncnc32)[C@H](O)[C@@H]1O` [Compound 5s, N^6-(3-Iodo-benzyl)-9-[5’-(2-methoxy-benzylaminocarbonyl-4’-thio-β-D-ribofuranosyl)]adenine], which inhibition at 1 µM is on record?
Answer: Its inhibition at 1 µM is 28 ± 9%.

Question: With `CCOc1ccccc1CNC(=O)[C@H]1S[C@@H](n2cnc3c(NCc4cccc(I)c4)ncnc32)[C@H](O)[C@@H]1O` [Compound 5t, 9-[5’-(2-Ethoxy-benzylaminocarbonyl-4’-thio-β-D-ribofuranosyl)]-N^6-(3-iodobenzyl)adenine] as the compound, how does the inhibition at 1 µM read?
Answer: The inhibition at 1 µM was 23 ± 8%.

Question: For `O=C(NCCc1ccccc1)[C@H]1S[C@@H](n2cnc3c(NCc4cccc(I)c4)ncnc32)[C@H](O)[C@@H]1O` [Compound 5v, N^6-(3-Iodo-benzyl)-9-[5’-(2-phenetylaminocarbonyl-4’-thio-β-D-ribofuranosyl)]adenine], which inhibition at 1 µM is on record?
Answer: The inhibition at 1 µM was 11%.

Tested on: not given
Test: not given
Conditions: cited from earlier work

Question: Which “In vitro anticancer activity” value does the source give for `CNC(=O)[C@H]1S[C@@H](n2cnc3c(NCc4cccc(I)c4)nc(Cl)nc32)[C@H](O)[C@@H]1O` [Compound 3, thio-Cl-IB-MECA] here?
Answer: The value was “potent”.

Tested on: not given
Test: not given
Conditions: cited from earlier work
Remark: another data set of the same source

Question: Which “In vivo anticancer activity” value does the source give for `CNC(=O)[C@H]1S[C@@H](n2cnc3c(NCc4cccc(I)c4)nc(Cl)nc32)[C@H](O)[C@@H]1O` [Compound 3, thio-Cl-IB-MECA] here?
Answer: The value was “potent”.

Target: T1, human A3 adenosine receptor (Homo sapiens, UniProt P0DMS8)
T1 sequence (P0DMS8 1-318): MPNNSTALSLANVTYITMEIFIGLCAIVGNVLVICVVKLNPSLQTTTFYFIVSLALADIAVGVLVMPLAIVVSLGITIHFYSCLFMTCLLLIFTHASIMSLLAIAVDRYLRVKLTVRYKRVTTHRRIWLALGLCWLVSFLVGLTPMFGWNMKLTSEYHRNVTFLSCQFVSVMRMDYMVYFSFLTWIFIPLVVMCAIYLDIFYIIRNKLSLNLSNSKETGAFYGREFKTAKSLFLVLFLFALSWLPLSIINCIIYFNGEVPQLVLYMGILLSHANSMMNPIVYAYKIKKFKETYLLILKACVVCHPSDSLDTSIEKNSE
Test: not given
Type: cell-based
Conditions: transfected CHO cells

Question: For `CNC(=O)[C@H]1S[C@@H](n2cnc3c(NCc4cccc(I)c4)ncnc32)[C@H](O)[C@@H]1O` [Compound 5h, N^6-(3-Iodo-benzyl)-9-(5’-methylaminocarbonyl-4’-thio-β-D-ribofuranosyl)adenine], which “Agonist efficacy at human A3AR (inhibition of cyclic AMP)” value is on record?
Answer: Its value is “full agonist”.
